Test results published in patent EP1143970B1, “PYRIDINE COMPOUNDS, USE AND PREPARATION THEREOF” (priority 1999, dated 2000).
Read-outs that look alike come from different tables or passages of the source. Marks after values point to notes of the source that are not given here.

Columns and labels:
[1] = Anti-cancer activity (test not described)
[2] = system: P388/0
[3] = system: P388/BCNU; test: Antitumor activity against IP-implanted P388/BCNU leukemia in mice
[4] = system: P388/CPA; test: Antitumor activity against IP-implanted P388/CPA leukemia in mice; format: in vivo, murine
[5] = system: human MX-1 mammary tumor; test: In vivo antitumor activity against s.c.-implanted human MX-1 mammary tumor xenograft; settings: sc MX-1
Excerpt: (§1) The antitumor activity data of the acyl derivatives of DM-PEN vs MX-1 human mammary tumor xenograft implanted s.c. or i.c. with intraperitoneal (i.p.) or oral drug treatment are shown in Table 1 below.

[6] = system: ZR-75-1 mammary; test: In vivo antitumor activity against s.c.-implanted human tumor xenograft ZR-75-1; settings: sc ZR-75-1
[7] = system: U251 CNS; test: In vivo antitumor activity against s.c.-implanted human tumor xenograft U251; settings: sc U251; IP 90 mg/kg/dose, Days 19-23
[8] = system: P388/L-PAM; test: Antitumor activity against IP-implanted P388/L-PAM leukemia in mice
[9] = system: human MX-1 mammary tumor; test: In vivo antitumor activity against i.c.-implanted human MX-1 mammary tumor xenograft; set-up: species or system mouse; settings: for Median % ILS: I.C.-implanted MX-1, optimal doses (LD10 or less), schedule QD1-5, I.P., based on dying mice only
Excerpt: as §1
Table 2Comparative Activity of PEN, DM-PEN and DM-ACYL-PEN Against […] Human MX-1 Mammary Tumor at Optimal Doses (LD10 or Less) and Schedule (QD1-5) Administered I.P.

[10] = Cytotoxicity in vitro; settings: without metabolism
[11] = 14C-penclomedine, tumor-bearing rats; cited from earlier work
[12] = rats; muscle tremors, incoordination, convulsions and reduced activity; cited from earlier work
[13] = P388/0, IP 20.0 MG/KG/DOSE, Q1D X 1 (1)
[14] = IP 30.0 MG/KG/DOSE, Q1D X 1 (1)
[15] = IP 60.0 MG/KG/DOSE, Q1D X 5 (1)
[16] = IP 90.0 MG/KG/DOSE, Q1D X 5 (1)
[17] = IP 135.0 MG/KG/DOSE, Q1D X 5 (1)
[18] = highest nontoxic doses evaluated, difference to DM-PEN
[19] = highest nontoxic doses evaluated, difference to PEN
[20] = P388/0, IP 60.0 MG/KG/DOSE, Q1D X 5 (1)
[21] = P388/0, IP 90.0 MG/KG/DOSE, Q1D X 5 (1)
[22] = P388/0, IP 135.0 MG/KG/DOSE, Q1D X 5 (1)
[23] = P388/L-PAM, IP 60.0 MG/KG/DOSE, Q1D X 5 (1)
[24] = P388/L-PAM, IP 90.0 MG/KG/DOSE, Q1D X 5 (1)
[25] = P388/L-PAM, IP 135.0 MG/KG/DOSE, Q1D X 5 (1)

CCOc1nc(C(Cl)(Cl)Cl)c(Cl)c(OCC)c1Cl [3,5-dichloro-4,6-diethoxy-2-(trichloromethyl)pyridine]
anti-cancer activity (in words) [1]: show active anti-cancer activity

CCOc1c(Cl)c(OC)nc(C(Cl)(Cl)Cl)c1Cl [3,5-dichloro-4-ethoxy-6-methoxy-2-(trichloromethyl)pyridine]
anti-cancer activity (in words) [1]: show active anti-cancer activity

O=NN(CCCl)C(=O)NCCCl [BCNU, carmustine]
50-DAY SURV./ TOTAL [2, 13]: 3 / 6
% ILS [2, 13]: +145%
APPROX. NET LOG10 CHANGE IN TUMOR BURDEN AT END OF Rx [2, 13]: ca-6.8
50-DAY SURV./ TOTAL ([2]; P388/0, IP 30.0 MG/KG/DOSE, Q1D X 1 (1)): 6 / 6
50-DAY SURV./ TOTAL ([3]; IP 20.0 MG/KG/DOSE, Q1D X 1 (1)): 0 / 6
50-DAY SURV./ TOTAL [3, 14]: 0 / 6
MEDIAN DAY OF DEATH [3, 14]: 6.5

O=P1(N(CCCl)CCCl)NCCCO1 (stereo not shown) [CPA, cyclophosphamide]
50-DAY SURV./ TOTAL ([4]; IP 175.0 MG/KG/DOSE, Q1D X 1 (1)): 0 / 6
50-DAY SURV./ TOTAL ([4]; IP 265.0 MG/KG/DOSE, Q1D X 1 (1)): 0 / 6
50-DAY SURV./ TOTAL ([2]; P388/0, IP 175.0 MG/KG/DOSE, Q1D X 1 (1)): 1 / 6
50-DAY SURV./ TOTAL ([2]; P388/0, IP 265.0 MG/KG/DOSE, Q1D X 1 (1)): 6 / 6

COc1nc(C(Cl)(Cl)Cl)c(Cl)c(OC(C)=O)c1Cl [DM-A-PEN]
Lethality at the stated dosage (LD level) ([5]; IP 60 mg/kg/dose, Days 15-19): 60 (LD20)
T-C ([6]; IP 60 mg/kg/dose, Days 10-14): 10.6 days
T-C ([6]; IP 90 mg/kg/dose, Days 8-12): 14.1 days
T-C [7]: 15.7 days
50-DAY SURV./ TOTAL [4, 15]: 0 / 6
50-DAY SURV./ TOTAL [4, 16]: 0 / 6
% ILS [4, 16]: +66%
MEDIAN DAY OF DEATH [4, 16]: 20.5
50-DAY SURV./ TOTAL [4, 17]: 0 / 6
% ILS [4, 17]: +127%
more active than DM-PEN, log cell kill [4, 18]: 4.6 log cell kill
more active than PEN, log cell kill [4, 19]: 7.4 log cell kill
50-DAY SURV./ TOTAL [2, 20]: 0 / 6
50-DAY SURV./ TOTAL [2, 21]: 0 / 6
MEDIAN DAY OF DEATH [2, 21]: 21.5
50-DAY SURV./ TOTAL [2, 22]: 0 / 6
Lethality at the stated dosage (LD level) [2, 22]: LD33
MEDIAN DAY OF DEATH [2, 22]: 28.5
more active than PEN, log cell kill ([2]; P388/0, highest nontoxic doses evaluated, difference to PEN): 0.4 log cell kill
more active than DM-PEN, log cell kill ([2]; P388/O, highest nontoxic doses evaluated, difference to DM-PEN): 1.9 log cell kill
50-DAY SURV./ TOTAL [3, 15]: 1 / 6
50-DAY SURV./ TOTAL [3, 16]: 0 / 6
50-DAY SURV./ TOTAL [3, 17]: 0 / 6
% ILS [3, 17]: +133%
Lethality at the stated dosage (LD level) [3, 17]: LD17
more active than DM-PEN, log cell kill [3, 18]: 1.5 log cell kill
more active than PEN, log cell kill [3, 19]: 3.5 log cell kill
50-DAY SDRV./ TOTAL [8, 23]: 0 / 6
50-DAY SDRV./ TOTAL [8, 24]: 0 / 6
50-DAY SDRV./ TOTAL [8, 25]: 0 / 6
Lethality at the stated dosage (LD level) [8, 25]: LD17
more active than PEN or DM-PEN, log cell kill ([8]; P388/L-PAM, difference to PEN or DM-PEN): 0.2-0.3 log cell kill

COc1nc(C(Cl)(Cl)Cl)c(Cl)c(OC(=O)c2ccccc2)c1Cl [DM-B-PEN]
Tumor-Free-Surv/Total ([9]; ic MX-1, IP 135 mg/kg/dose, Days 1-5): . 0/5

COc1nc(C(Cl)(Cl)Cl)c(Cl)c(OC(=O)c2ccco2)c1Cl [DM-F-PEN]
Median % ILS [9]: 108^c %

COc1nc(C(Cl)(Cl)Cl)c(Cl)c(OC(=O)CI)c1Cl [DM-IA-PEN]
Lethality at the stated dosage (LD level) ([5]; IP 60 mg/kg/dose, Days 12-16): 60 (LD40)

COc1nc(C(Cl)(Cl)Cl)c(Cl)c(OC(=O)c2ccncc2)c1Cl [DM-IN-PEN]
Lethality at the stated dosage (LD level) ([5]; IP 90 mg/kg/dose, Days 12-16): 90 (LD20)

COCC(=O)Oc1c(Cl)c(OC)nc(C(Cl)(Cl)Cl)c1Cl [DM-MA-PEN]
Median % ILS [9]: 126^a %
Median % ILS (dying mice only) ([9]; ic MX-1, IP 90 mg/kg/dose, Days 1-5): +126%

CCCCCCCC(=O)Oc1c(Cl)c(OC)nc(C(Cl)(Cl)Cl)c1Cl [DM-O-PEN]
Median % ILS [9]: 121^b %

COc1nc(C(Cl)(Cl)Cl)c(Cl)c(O)c1Cl [DM-PEN, 3,5-dichloro-2-methoxy-4-hydroxy-6-(trichloromethyl)pyridine]
Median % ILS [9]: 60%
50-DAY SURV./ TOTAL [4, 15]: 0 / 6
50-DAY SURV./ TOTAL [4, 16]: 0 / 6
50-DAY SURV./ TOTAL [4, 17]: 0 / 6
50-DAY SURV./ TOTAL [2, 20]: 0 / 6
MEDIAN DAY OF DEATH [2, 20]: 18.0
50-DAY SURV./ TOTAL [2, 21]: 0 / 6
MEDIAN DAY OF DEATH [2, 21]: 18.0
50-DAY SURV./ TOTAL [2, 22]: 0 / 6
MEDIAN DAY OF DEATH [2, 22]: 8.6
cytotoxic agents in vitro (in words) [10]: inactive
50-DAY SURV./ TOTAL [3, 15]: 0 / 6
APPROX. NET LOG10 CHANGE IN TUMOR BURDEN AT END OF Rx [3, 15]: +0.6
50-DAY SURV./ TOTAL [3, 16]: 0 / 6
% ILS [3, 16]: +65%
50-DAY SURV./ TOTAL [3, 17]: 0 / 6
Lethality at the stated dosage (LD level) [3, 17]: LD17
50-DAY SDRV./ TOTAL [8, 23]: 0 / 8
APPROX. NET LOG10 CHANGE IN TUMOR BURDEN AT END OF Rx [8, 23]: +1.5
MEDIAN DAY OF DEATH [8, 23]: 13.6
50-DAY SDRV./ TOTAL [8, 24]: 0 / 6
APPROX. NET LOG10 CHANGE IN TUMOR BURDEN AT END OF Rx [8, 24]: +1.5
50-DAY SDRV./ TOTAL [8, 25]: 0 / 6
APPROX. NET LOG10 CHANGE IN TUMOR BURDEN AT END OF Rx [8, 25]: +1.5
Lethality at the stated dosage (LD level) [8, 25]: 1.033

COc1nc(C(Cl)(Cl)Cl)c(Cl)c(OC(=O)c2cccs2)c1Cl [DM-TC-PEN]
Median % ILS [9]: 100^d %

N[C@@H](Cc1ccc(N(CCCl)CCCl)cc1)C(=O)O [L-PAM, melphalan]
50-DAY SURV./ TOTAL ([2]; mouse, in vivo, ip, 15 mg/kg): 6 / 6
50-DAY SURV./ TOTAL ([2]; mouse, in vivo, ip, 20 mg/kg): 6 / 6
APPROX. NET LOG10 CHANGE IN TUMOR BURDEN AT END OF Rx ([2]; mouse, in vivo, ip, 20 mg/kg): ca -6.6
50-DAY SDRV./ TOTAL ([8]; mouse, in vivo, ip, 15 mg/kg): 0 / 6
APPROX. NET LOG10 CHANGE IN TUMOR BURDEN AT END OF Rx ([8]; mouse, in vivo, ip, 15 mg/kg): -1.6
MEDIAN DAY OF DEATH ([8]; mouse, in vivo, ip, 15 mg/kg): 16.0
50-DAY SDRV./ TOTAL ([8]; mouse, in vivo, ip, 20 mg/kg): 0/6
APPROX. NET LOG10 CHANGE IN TUMOR BURDEN AT END OF Rx ([8]; mouse, in vivo, ip, 20 mg/kg): -1.6
MEDIAN DAY OF DEATH ([8]; mouse, in vivo, ip, 20 mg/kg): 16.0

COc1nc(C(Cl)(Cl)Cl)c(Cl)c(OC)c1Cl [PEN, 3,5-dichloro-2,4-dimethoxy-6-(trichloromethyl)pyridine]
Median % ILS [9]: 88%
50-DAY SURV./ TOTAL [4, 15]: 0 / 6
MEDIAN DAY OF DEATH [4, 15]: 10.5
50-DAY SURV./ TOTAL [4, 16]: 0 / 6
MEDIAN DAY OF DEATH [4, 16]: 10.5
50-DAY SURV./ TOTAL [4, 17]: 0 / 6
MEDIAN DAY OF DEATH [4, 17]: 10.5
50-DAY SURV./ TOTAL [2, 20]: 0 / 6
MEDIAN DAY OF DEATH [2, 20]: 14.5
50-DAY SURV./ TOTAL [2, 21]: 0 / 6
APPROX. NET LOG10 CHANGE IN TUMOR BURDEN AT END OF Rx [2, 21]: -0.6
50-DAY SURV./ TOTAL [2, 22]: 0 / 6
APPROX. NET LOG10 CHANGE IN TUMOR BURDEN AT END OF Rx [2, 22]: -4.6
radioactive species in the brain [11]: predominant radioactive species in the brain was penclomedine
neurotoxicity [12]: Dose related neurotoxicity
cytotoxic agents in vitro (in words) [10]: inactive
50-DAY SURV./ TOTAL [3, 15]: 0 / 6
50-DAY SURV./ TOTAL [3, 16]: 0 / 6
50-DAY SURV./ TOTAL [3, 17]: 0 / 6
MEDIAN DAY OF DEATH [3, 17]: 11.5
50-DAY SDRV./ TOTAL [8, 23]: 0 / 6
50-DAY SDRV./ TOTAL [8, 24]: 0 / 6
APPROX. NET LOG10 CHANGE IN TUMOR BURDEN AT END OF Rx [8, 24]: +1.5
50-DAY SDRV./ TOTAL [8, 25]: 0 / 6
APPROX. NET LOG10 CHANGE IN TUMOR BURDEN AT END OF Rx [8, 25]: +1.5
